Patent publication US20110275711A1, “METHOD FOR TREATING MACULAR EDEMA” (R-TECH UENO, LTD., priority 2010, published 2011)

Legend:
[1] = test system: rhVEGF induced retinal vascular leakage; test: Inhibition of rhVEGF induced retinal vascular leakage in rabbit model (vitreous fluorescein leakage); assay type: in vivo, GD79B rabbit (pigmented); conditions: 50 μl test composition intravitreal just after rhVEGF 500 ng; for Fluorescein Leakage (AUC) right eye (treated), Mean: measured 48 h after rhVEGF, 1 h after sodium fluorescein i.v., n=8; for Inhibition of fluorescein leakage (vs. control): AUC ratio compared with vehicle control group; for ratio of AUC right/left, Mean ± S.D.: treated eye/untreated eye
Excerpt: The effect of the fatty acid derivative to inhibit retinal vascular leakage in rabbit model.
Animals: GD79B rabbit (pigmented). Each group contains 8 animals.
1) 0.15 w/v % isopropyl unoprostone: formulation example 1 2) 4 w/v % triamcinolone acetonide: Kenacort® Retard (Bristol-Myers Squibb Japan, Tokyo, JP) (positive control) 3) vehicle of isopropyl unoprostone (composition comprising the ingredients of formulation example 1 except for isopropyl unoprostone) (control)
Retinal vascular leakage model animals were prepared. Recombinant human vascular endothelial cell growth factor (rhVEGF) 500 ng (in 50 μl) was injected intravitreally in the right eye of animals. Just after the injection of rhVEGE, 50 μl of test composition 1 or 2 was injected intraviterally in the right eye of the animal. The left eyes were remain untreated (no rhVEGE nor test compositions).
Forty seven (47) hours after the rhVEGF injection, 50 mg/kg of sodium fluorescein (10 w/v % in physiological saline) was injected to the animals via auricular veins. One (1) hour after the injection of sodium fluorescein, the fluorescence intensities in the vitreous body of the treated and untreated eyes were measured by using a corneal spectrophotometer. Based on the measured value, area under the curve (AUC) of the fluorescence intensity that reflects the leakage and the ratio of AUC (treated eye/untreated eye, i.e. right eye/left eye) were calculated. The AUC ratio of isopropyl unoprostone and triamcinolone acetonide administered group were compared to the AUC ratio of the control group to give the inhibition (%) of retinal vascular leakage.

macular edema = conditions: package insert of Xalatan; cited from earlier work

Compound: CCCCCCCC(=O)CC[C@@H]1[C@@H](C/C=C\CCCC(=O)OC(C)C)[C@@H](O)C[C@H]1O [isopropyl unoprostone, (+)-isopropyl (Z)-7-[(1R,2R,3R,5S)-3,5-dihydroxy-2-(3-oxodecyl)cyclopentyl]hept-5-enoate]
- Fluorescein Leakage (AUC) right eye (treated), Mean [1]: 10998.4
- Inhibition of fluorescein leakage (vs. control) [1]: 60%
- ratio of AUC right/left, Mean ± S.D. [1]: 3.43 ± 4.01

Compound: CC(C)OC(=O)CCC/C=C\C[C@@H]1[C@@H](CC[C@@H](O)CCc2ccccc2)[C@H](O)C[C@@H]1O [latanoprost, (+)-Isopropyl (Z)-7-[(1R,2R,3R,5S)-3,5-dihydroxy-2-[(3R)-3-hydroxy-5-phenylpentyl]cyclopentyl]-5-heptenoate]
- macular edema as side effect (macular edema): causes macular edema as a side effect

Compound: CC1(C)O[C@@H]2C[C@H]3[C@@H]4CCC5=CC(=O)C=C[C@]5(C)[C@@]4(F)[C@@H](O)C[C@]3(C)[C@]2(C(=O)CO)O1 [triamcinolone acetonide]
- Fluorescein Leakage (AUC) right eye (treated), Mean [1]: 3715.6
- Inhibition of fluorescein leakage (vs. control) [1]: 89%
- ratio of AUC right/left, Mean ± S.D. [1]: 0.98 ± 0.44
